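A five-concentration, 48-hour dose response in 96-well plates underlies each endpoint, interpolated linearly between surrounding concentrations. GI50 marks 50% less growth. TGI denotes the concentration required for complete inhibition of growth.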
Columns and labels:
Assay in all cases: inhibition of tumour cell growth, NCI panel, 48 h
T-47D breast = tested on: T-47D breast
UACC-62 melanoma = tested on: UACC-62 melanoma
MOLT-4 leukemia = tested on: MOLT-4 leukemia
HCT-116 colon = tested on: HCT-116 colon
SK-OV-3 ovarian = tested on: SK-OV-3 ovarian
UO-31 renal = tested on: UO-31 renal
OVCAR-4 ovarian = tested on: OVCAR-4 ovarian
HCC-2998 colon = tested on: HCC-2998 colon
OVCAR-5 ovarian = tested on: OVCAR-5 ovarian
NCI-H226 lung = tested on: NCI-H226 lung
A549 NSCLC = tested on: A549 NSCLC
786-0 renal = tested on: 786-0 renal
ACHN renal = tested on: ACHN renal
COLO 205 colon = tested on: COLO 205 colon
HOP-92 NSCLC = tested on: HOP-92 NSCLC
DU-145 prostate = tested on: DU-145 prostate
BT-549 breast = tested on: BT-549 breast
SF-295 CNS = tested on: SF-295 CNS
PC-3 prostate = tested on: PC-3 prostate
MDA-MB-231 breast = tested on: MDA-MB-231 breast
MDA-MB-435 = tested on: MDA-MB-435
K-562 leukemia = tested on: K-562 leukemia
SK-MEL-2 melanoma = tested on: SK-MEL-2 melanoma
SNB-75 CNS = tested on: SNB-75 CNS
SK-MEL-5 melanoma = tested on: SK-MEL-5 melanoma
A498 renal = tested on: A498 renal
SN12C renal = tested on: SN12C renal
SW-620 colon = tested on: SW-620 colon
M14 melanoma = tested on: M14 melanoma
MALME-3M melanoma = tested on: MALME-3M melanoma
HS 578T breast = tested on: HS 578T breast
CAKI-1 renal = tested on: CAKI-1 renal
RPMI-8226 leukemia = tested on: RPMI-8226 leukemia
SF-539 CNS = tested on: SF-539 CNS
OVCAR-3 ovarian = tested on: OVCAR-3 ovarian
UACC-257 melanoma = tested on: UACC-257 melanoma
RXF 393 renal = tested on: RXF 393 renal
HL-60(TB) leukemia = tested on: HL-60(TB) leukemia
SNB-19 CNS = tested on: SNB-19 CNS
IGROV1 ovarian = tested on: IGROV1 ovarian
SK-MEL-28 melanoma = tested on: SK-MEL-28 melanoma
EKVX NSCLC = tested on: EKVX NSCLC
HCT-15 colon = tested on: HCT-15 colon
NCI-H460 lung = tested on: NCI-H460 lung
LOX IMVI melanoma = tested on: LOX IMVI melanoma
SF-268 CNS = tested on: SF-268 CNS
OVCAR-8 ovarian = tested on: OVCAR-8 ovarian
KM12 colon = tested on: KM12 colon
SR leukemia = tested on: SR leukemia
MCF7 breast = tested on: MCF7 breast
HT29 colon = tested on: HT29 colon
NCI-H522 lung = tested on: NCI-H522 lung
TK-10 renal = tested on: TK-10 renal
U251 CNS = tested on: U251 CNS
HOP-62 NSCLC = tested on: HOP-62 NSCLC
NCI/ADR-RES ovarian = tested on: NCI/ADR-RES ovarian

Compound: CSc1nc2nc(-c3ccccc3)c(C)c-2c2n1C(C)C(=O)N2 (configuration not stated)
- GI50 (T-47D breast): 29.8 µM
- TGI (T-47D breast): > 100 µM
- GI50 (UACC-62 melanoma): 18.6 µM
- TGI (UACC-62 melanoma): 45.2 µM
- GI50 (MOLT-4 leukemia): 40.3 µM
- TGI (MOLT-4 leukemia): > 100 µM
- GI50 (HCT-116 colon): 37.4 µM
- TGI (HCT-116 colon): > 100 µM
- GI50 (SK-OV-3 ovarian): 8.43 µM
- TGI (SK-OV-3 ovarian): 59.1 µM
- GI50 (UO-31 renal): 18.3 µM
- TGI (UO-31 renal): > 100 µM
- GI50 (OVCAR-4 ovarian): 40.1 µM
- TGI (OVCAR-4 ovarian): > 100 µM
- GI50 (HCC-2998 colon): 88.6 µM
- TGI (HCC-2998 colon): > 100 µM
- GI50 (OVCAR-5 ovarian): > 100 µM
- TGI (OVCAR-5 ovarian): > 100 µM
- GI50 (NCI-H226 lung): 35.7 µM
- TGI (NCI-H226 lung): > 100 µM
- GI50 (A549 NSCLC): 40.1 µM
- TGI (A549 NSCLC): > 100 µM
- GI50 (786-0 renal): 29.2 µM
- TGI (786-0 renal): > 100 µM
- GI50 (ACHN renal): 38.1 µM
- TGI (ACHN renal): > 100 µM
- GI50 (COLO 205 colon): 41.4 µM
- TGI (COLO 205 colon): > 100 µM
- GI50 (HOP-92 NSCLC): 40.8 µM
- TGI (HOP-92 NSCLC): > 100 µM
- GI50 (DU-145 prostate): 51.9 µM
- TGI (DU-145 prostate): > 100 µM
- GI50 (BT-549 breast): 50.3 µM
- TGI (BT-549 breast): > 100 µM
- GI50 (SF-295 CNS): 24 µM
- TGI (SF-295 CNS): > 100 µM
- GI50 (PC-3 prostate): 31.3 µM
- TGI (PC-3 prostate): > 100 µM
- GI50 (MDA-MB-231 breast): 83.4 µM
- TGI (MDA-MB-231 breast): > 100 µM
- GI50 (MDA-MB-435): 32.9 µM
- TGI (MDA-MB-435): > 100 µM
- GI50 (K-562 leukemia): 41.5 µM
- TGI (K-562 leukemia): > 100 µM
- GI50 (SK-MEL-2 melanoma): 30.1 µM
- TGI (SK-MEL-2 melanoma): 78.1 µM
- GI50 (SNB-75 CNS): 43.2 µM
- TGI (SNB-75 CNS): > 100 µM
- GI50 (SK-MEL-5 melanoma): 16.9 µM
- TGI (SK-MEL-5 melanoma): 35.5 µM
- GI50 (A498 renal): 32.2 µM
- TGI (A498 renal): > 100 µM
- GI50 (SN12C renal): 52.6 µM
- TGI (SN12C renal): > 100 µM
- GI50 (SW-620 colon): 58.8 µM
- TGI (SW-620 colon): > 100 µM
- GI50 (M14 melanoma): 38.6 µM
- TGI (M14 melanoma): > 100 µM
- GI50 (MALME-3M melanoma): 43.1 µM
- TGI (MALME-3M melanoma): > 100 µM
- GI50 (HS 578T breast): 77.5 µM
- TGI (HS 578T breast): > 100 µM
- GI50 (CAKI-1 renal): 53.6 µM
- TGI (CAKI-1 renal): > 100 µM
- GI50 (RPMI-8226 leukemia): 16.4 µM
- TGI (RPMI-8226 leukemia): > 100 µM
- GI50 (SF-539 CNS): 86.7 µM
- TGI (SF-539 CNS): > 100 µM
- GI50 (OVCAR-3 ovarian): 26.8 µM
- TGI (OVCAR-3 ovarian): 81.8 µM
- GI50 (UACC-257 melanoma): 51.3 µM
- TGI (UACC-257 melanoma): > 100 µM
- GI50 (RXF 393 renal): 30.6 µM
- TGI (RXF 393 renal): > 100 µM
- GI50 (HL-60(TB) leukemia): 36.4 µM
- TGI (HL-60(TB) leukemia): > 100 µM
- GI50 (SNB-19 CNS): 38.5 µM
- TGI (SNB-19 CNS): > 100 µM
- GI50 (IGROV1 ovarian): 41.5 µM
- TGI (IGROV1 ovarian): > 100 µM
- GI50 (SK-MEL-28 melanoma): 43.4 µM
- TGI (SK-MEL-28 melanoma): > 100 µM
- GI50 (EKVX NSCLC): 65.7 µM
- TGI (EKVX NSCLC): > 100 µM
- GI50 (HCT-15 colon): 51.2 µM
- TGI (HCT-15 colon): > 100 µM
- GI50 (NCI-H460 lung): 32.4 µM
- TGI (NCI-H460 lung): > 100 µM
- GI50 (LOX IMVI melanoma): 46.7 µM
- TGI (LOX IMVI melanoma): > 100 µM
- GI50 (SF-268 CNS): 34.2 µM
- TGI (SF-268 CNS): > 100 µM
- GI50 (OVCAR-8 ovarian): 45.7 µM
- TGI (OVCAR-8 ovarian): > 100 µM
- GI50 (KM12 colon): 47.7 µM
- TGI (KM12 colon): > 100 µM
- GI50 (SR leukemia): 39.3 µM
- TGI (SR leukemia): > 100 µM
- GI50 (MCF7 breast): 25.8 µM
- TGI (MCF7 breast): > 100 µM
- GI50 (HT29 colon): 33.7 µM
- TGI (HT29 colon): > 100 µM
- GI50 (NCI-H522 lung): 38.1 µM
- TGI (NCI-H522 lung): > 100 µM
- GI50 (TK-10 renal): 38.1 µM
- TGI (TK-10 renal): > 100 µM
- GI50 (U251 CNS): 68.2 µM
- TGI (U251 CNS): > 100 µM
- GI50 (HOP-62 NSCLC): 44.7 µM
- TGI (HOP-62 NSCLC): > 100 µM
- GI50 (NCI/ADR-RES ovarian): 38.8 µM
- TGI (NCI/ADR-RES ovarian): > 100 µM

Reference: PubChem BioAssay (NCI)
